According to patent publication US5278045A, “Method and compositions to screen compounds for enhancement of the cholinergic, dopaminergic and serotonergic function” (Du Pont Merck Pharmaceutical Company, priority 1990, dated 1994):

How the values were obtained:
DuP 996 binding protein = assay: Radioreceptor screening assay (displacement of tritiated DuP 996); parameters: species or system rat; conditions: inhibition of binding of 10 nM tritiated DuP 996, pH 7.4, 25° C., 60 minutes
Protocol: Male Sprague-Dawley rats (Charles River Breeding Laboratories) at 200-250 g were euthanatized by decapitation. Rat brain regions were dissected according to Heffner et al., Pharmacol. Biochem. Behav., 13, 453 (1980). Brain membranes were prepared by the method of Tam, Proc. Natl. Acad. Sci. USA, 80, 6703 (1983). The brain tissues were homogenized (20 sec) in 10 vol (wt/vol) of ice-cold 0.32M sucrose with a Brinkman Polytron (setting 8). The homogenate was centrifuged at 920×g for 10 min at 4° C. The supernatant was centrifuged at 47,000×g for 20 min. The resulting membrane pellet was resuspended in 10 vol (original wt/vol) of 50 mM Tris-HCl (pH 7.4) and incubated at 37° C. for 30 min to degrade and dissociate bound endogenous ligands. The membranes were then centrifuged at 47,000×g for 20 min and resuspended in 50 mM Tris-HCl.
Compounds to be screened were incubated with brain membranes. (1-2 mg protein) in 50 mM Tris-HCl buffer, pH 7.4, for 10 minutes in 25° C. Then 10 nM tritiated DuP 996 or its active structural analogs were added and incubated at 25° C. for 60 minutes. The samples were filtered on Whatman GF/B glass filters which had been soaked in 0.2% polyethylenimine and washed 3 times each with 5 ml of ice-cold Tris buffer. Nonspecific binding was determined by performing binding in the presence of 10 μM DuP 996. The control represents specific binding in the absence of compounds to be screened. Screened compounds which inhibited the specific binding of tritiated DuP 996 or analogs to its binding protein should be active in binding to the same protein. This is illustrated further in Example 4, Part B.

ACh release = assay: Neurotransmitter release assay: stimulated ACh release from brain slices; parameters: species or system rat; conditions: concentration to enhance stimulated release of ACh by 100% (2-fold) over control, from dose response curves
Protocol: Male Wistar rats weighing 175-200 g were euthanatized and the brains were dissected out immediately. Slices (0.3 mm thick) from the parietal cortex were prepared manually by using a recessed Lucite® guide. Slices (1.5 mm thick) from the hippocampus and the caudate nucleus were prepared by using a slotted brain holder. All slices were subsequently cut into 0.25×0.25 mm squares with a McIlwain tissue chopper.
Labeling of transmitter stores in slices was prepared by the following methods. For ACh release, slices (approximately 100 mg wet weight) were incubated in 10 ml Krebs-Ringer (KR) medium containing (mM): NaCl(116), KCl(3), CaCl2 (1.3), MgCl2 (1.2), KH2 PO4 (1.2), Na2 SO4 (1.2), NaHCO3 (25) and glucose(11), to which 10 μCi ^3 H-choline (specific activity approx. 80 Ci/mmol: NEN) and 10 nmol unlabeled choline had been added to give a final concentration of 10^-6 M. Incubation was carried out for 30 min at 37° C. under a steady flow of 95% O2 /5% CO2. Under these conditions, part of the radioactive choline taken up is converted into radioactive ACh by cholinergic nerve endings, stored in synaptic vesicles, and released upon depolarization by high-K^+ -containing medium [Molenaar et al., 1973a]. For dopamine (DA), serotonin (5-HT), and norepinephrine (NE) release, slices (approximately 100 mg wet weight) were incubated in KR medium containing 0.01 mM nialamide at 37° C. under a steady flow of 95% O2 /5% CO2. The MAO-inhibitor nialamide was added to the medium in order to inhibit metabolism to the monoamines. Incubation was for 30 min in 10 ml of KR medium to which 10 μCi ^3 H-dopamine, ^3 H-norepinephrine, or ^3 H-5-hydroxytryptamine (specific activity 30, 45, and 78 Ci/mmol, respectively: all from NEN) had been added.
Separate experiments were performed for the release of each neurotransmitter. After labeling of the transmitter stores, the slices were washed three times with non-radioactive KR medium and transferred to a superfusion apparatus to measure the drug effects on transmitter release [Schoemaker et al., Psychopharmacology 74, 137 (1981)]. The superfusion apparatus consisted of 10 thermo-jacketed glass columns of 5 mm diameter which were provided with GF/F glass fiber filters to support the brain slices (approximately 10 mg tissue/column). Superfusion was carried out with KR medium at a rate of 0.3 ml/min. For ACh release, 10^-5 M hemicholinium-3 was added to the medium to prevent the uptake of choline formed during superfusion from phospholipids and released ACh, so that it could not be subsequently converted into newly synthesized ACh, which would be released in preference to the pre-formed, labeled ACh. The medium was delivered by a 25-channel peristaltic pump (Ismatec; Brinkman) and maintained at 37° C. by a thermostated stainless-steel heating coil before entering the superfusion column. Each column was provided with a four-way slider valve (Beckman Instruments) which allowed rapid change of low-to-high-K^+ -KR-medium and with two 10-channel, 3-way valves which were used to change form drug-free to drug-containing low- and high-K^+ -KR media.
After 15 min washout of non-specifically bound radioactivity during superfusion, the collection of fractions of 4 min (1.2 ml) each was started. After 3×4 min, the KR medium was changed to a KR medium with 25 mM KCl (ACh, 5-HT release) or 12.5 mM KCl (DA release) (high K^+ -KR medium; S1). Depolarization-induced stimulation of release by high-K^+ -KR medium was then substituted by drug- or vehicle-containing low- and high-K^+ -KR medium and superfusion continued for 3×4 min with low-K^+ -KR medium, for 1×4 min with high-K^+ -KR medium (S2), and for 2×4 min with low-K^+ -KR medium.
Compounds were added to the medium by 100-fold dilution of appropriate stock solutions (in 0.9% NaCl/H2 O) with either low- or high-K^+ -KR medium.
All superfusion fractions were collected in liquid scintillation counting vials.

Compound | IC50 (DuP 996 binding protein) | ACh Release EC100 (ACh release)
Cc1nc(CC2(Cc3csc(C)n3)C(=O)N(c3ccccc3)c3ccccc32)cs1 [Compound 30, 3,3-Bis(2-methyl-4-thiazolylmethyl)-1,3-dihydro-1-phenyl-2H-indol-2-one] | 1200 µM | 980,000 nM
O=C1N(c2ccccc2)c2ccccc2C1(Cc1ccncc1)Cc1cn[nH]c1 (stereo not drawn) [Compound 17, 1,3-Dihydro-1-phenyl-3-(1H-pyrazol-4-ylmethyl)-3-(4-pyridinyl-methyl)-2H-indol-2-one] | 0.67 µM | 3,000 nM
O=C1N(c2ccccc2)c2ccccc2C1(Cc1ccncc1)CC1CCCO1 (stereo not drawn) [Compound 18, 1,3-Dihydro-1-phenyl-3-(4-pyridinylmethyl)-3-(tetrahydro-2-furanyl-methyl)-2H-indol-2-one] | 1.04 µM | 34,000 nM
O=C1C(Cc2cccnc2)c2ccccc2N1c1ccccc1 (stereo not drawn) [Compound 21, 1,3-Dihydro-1-phenyl-3-(3-pyridinylmethyl)-2H-indol-2-one] | 6.03 µM | 12,000 nM
O=C1N(c2ccccc2)c2ccccc2C1(Cc1ccncn1)Cc1ccncn1 [Compound 16, 3,3-Bis(4-pyrimidinylmethyl)-1-phenyl-1H-indol-2(3H)-one] | 0.57 µM | 3,500 nM
O=C1N(c2ccccc2)c2ccccc2C1(Cc1ccnnc1)Cc1ccnnc1 [Compound 28, 3,3-Bis(4-pyridazinyl-methyl)-1,3-dihydro-1-phenyl-2H-indol-2-one] | 1000 µM | 1,000,000 nM
O=C1N(c2ccccc2)c2ccccc2C1(Cc1cnccn1)Cc1cnccn1 [Compound 20, 3,3-Bis(2-pyrazinylmethyl)-1-phenyl-1H-indol-2(3H)-one] | 4.2 µM | 11,000 nM
O=C1N(c2ccccc2)c2ccccc2C1(Cc1cnn(Cc2ccccc2)c1)Cc1cnn(Cc2ccccc2)c1 [Compound 27, 3,3-Bis[1-(phenylmethyl)-1H-pyrazol-4-ylmethyl]-1,3 dihydro-1-phenyl-2H-indol-2-one] | 990 µM | 1,300,000 nM
CN1C(=O)C(Cc2ccncc2)(Cc2ccncc2)c2ccccc21 [Compound 22, 1,3-Dihydro-1-methyl-3-3-bis(4-pyridinylmethyl)-2-H-indol-2-one] | 15.9 µM | 17,000 nM
O=C1C(C(O)(c2ccccn2)c2ccccn2)c2ccccc2N1c1ccccc1 (stereo not drawn) [Compound 26, 3[Bis(2-pyridinyl)-(hydroxy)methyl]-1,3-dihydro-1-phenyl-2H-indol-2-one] | 980 µM | 1,000,000 nM
CN1CCC(CC2(CC3CCN(C)CC3)C(=O)N(c3ccccc3)c3ccccc32)CC1 [Compound 25, 3,3-Bis(1-methyl-4-piperidinylmethyl)-1,3-dihydro-1-phenyl-2H-indol-2-one] | 970 µM | 1,200,000 nM
3,3-Bis(3-pyridinylmethyl)-1-phenyl-1H-indol-2(3H)one N-oxide [Compound 23] |  | 100,000 nM

The remaining compounds from weak to strong by IC50 (DuP 996 binding protein), led by results:

IC50 (DuP 996 binding protein) | Compound | ACh Release EC100 (ACh release)
0.558 µM | O=C1N2CCCc3cccc(c32)C1(Cc1ccncc1)Cc1ccncc1 [Compound 15, 1,1-Bis(4-pyridinylmethyl)5,6-dihydro-4H-pyrollo(3,2,1-IJ)quinolin-2(1H)-one] | 14,000 nM
0.168 µM | c1cnc2c(c1)C(Cc1ccncc1)(Cc1ccncc1)c1cccnc1-2 [Compound 12, 5,5-Bis(4-pyridinyl-methyl)-5H-cyclopenta(2,1-B:3,4-B')-dipyridine] | 1,400 nM
0.12 µM | C=C1c2cccc3cccc(c23)C1(Cc1ccncc1)Cc1ccncc1 [Compound 11, 4-[1,2-Dihydro-2-methyl-ene-1-(4-pyridinylmethyl)-1-acenaphthylen-1-yl-methyl]-pyridine] | 3,300 nM
0.119 µM | COc1ccc(C(C#N)(Cc2ccncc2)Cc2ccncc2)cc1 [Compound 10, α-(4-Methoxyphenyl)-α-(4-pyridinylmethyl)-4-pyridinepropane nitrile] | 1,600 nM
0.062 µM | Cc1ccc2c(c1)C(Cc1ccncc1)(Cc1ccncc1)c1ccccc1-2 [Compound 8, 4-[2-Methyl-9-(4-pyridinyl-methyl)-9H-fluoren-9-ylmethyl]pyridine] | 170 nM
0.062 µM | c1ccc2c(c1)-c1ccccc1C2(Cc1ccncc1)Cc1ccncc1 [Compound 9, 9,9-Bis(4-pyridinylmethyl)-9H-fluorene] | 340 nM
0.051 µM | c1ccc2c(c1)Sc1ccccc1C2(Cc1ccncc1)Cc1ccncc1 [Compound 6, 4,4'-[9H-Thioxanthen-9,9-diylbis(methylene)]pryidine] | 1,500 nM
0.046 µM | O=C1N2c3ccccc3CCc3cccc(c32)C1(Cc1ccncc1)Cc1ccncc1 [Compound 5, 2,2-Bis(4-pyridinylmethyl)-6,7-dihydro-indole(1,7-AB)(1)-benzapin-1(2H)-one] | 2,500 nM
0.034 µM | O=C1c2ccccc2C(Cc2ccncc2)(Cc2ccncc2)c2ccccc21 [Compound 4, 10,10-Bis(4-pyridinylmethyl)-9(10H)-anthracenone] | 90 nM
0.03 µM | Nc1ccc2c(c1)C(Cc1ccncc1)(Cc1ccncc1)c1ccccc1-2 [Compound 2, 9,9-Bis-(4-pyridinylmethyl)-9H-fluorene-2-amine] | 140 nM
0.02 µM | CC(=O)c1ccc2c(c1)C(Cc1ccncc1)(Cc1ccncc1)c1ccccc1-2 [Compound 1, 1-[9,9-Bis(4-pyridinylmethyl)-9H-fluoren-2-yl]-ethanone] | 170 nM
